Key:
[1] = molecular target: T1, adult human liver flavin-containing monooxygenase (form 3) (Homo sapiens, UniProt P31513, E158K); assay: N- and S-oxygenation by cDNA-expressed HLFMO 3 (solubilized protein from E. coli transformed with pTrcHLFMO 3), HPLC
T1 sequence (P31513 1-532 E158K): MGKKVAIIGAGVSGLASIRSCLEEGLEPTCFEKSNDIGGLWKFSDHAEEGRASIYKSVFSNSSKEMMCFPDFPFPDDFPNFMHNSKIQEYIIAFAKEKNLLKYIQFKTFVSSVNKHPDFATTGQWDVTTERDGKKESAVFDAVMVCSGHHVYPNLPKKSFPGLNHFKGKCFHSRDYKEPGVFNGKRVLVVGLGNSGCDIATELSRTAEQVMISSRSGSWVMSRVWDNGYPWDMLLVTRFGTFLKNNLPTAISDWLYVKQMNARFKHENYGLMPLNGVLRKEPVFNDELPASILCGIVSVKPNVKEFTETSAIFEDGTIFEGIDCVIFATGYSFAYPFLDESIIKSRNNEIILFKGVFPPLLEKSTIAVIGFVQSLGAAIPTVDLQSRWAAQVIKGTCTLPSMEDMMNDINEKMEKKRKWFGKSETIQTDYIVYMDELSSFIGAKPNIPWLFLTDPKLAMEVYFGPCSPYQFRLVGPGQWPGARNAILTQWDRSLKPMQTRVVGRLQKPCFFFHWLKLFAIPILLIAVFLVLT
Method: (§1) In all cases examined, product formation was directly determined by HPLC analysis of organic extracts.
Competent NM522 Escherichia coli cells were transformed with the pTrc HLFMO 3 plasmid. […] After inoculation with a fresh overnight culture of NM522 containing pTrcHLFMO 3, the culture was grown at 37° C. until Abs600 was approximately 0.5 absorbance units. Finally, IPTG (0.8 mM) was added to the culture to induce expression of protein and the culture was left to grow overnight at 37° C.
The bacterial pellet was resuspended in 5 volumes of 50 mM potassium phosphate buffer (pH 8.4) containing 1% Triton X-100, 0.1% L-, α-phosphatidylcholine (L-α-lecithin) from egg yolk, 500 μM PMSF, and 1 mM EDTA. The mixture was sonicated and then centrifuged to remove cellular debris. As a control, bacterial lysate extracts from IPTG-induced pTrc99A-transformed NM522 cells (i.e., pTrc99A without the HLFMO 3 cDNA insert) were prepared under the same conditions.
(§2) Human liver samples were obtained from the Department of Surgery (UCSF) and with a protocol from the Medical College of Wisconsin (S. Wrighton).
(§3) A typical incubation mixture (final volume 0.25 ml) contained hepatic microsomes (0.4 mg of protein) or bacterial lysate (2.3 mg of protein), NADP^+ (0.5 mM), glucose-6-phosphate (2.0 mM), glucose-6-phosphate dehydrogenase (1 IU), DETAPAC (0.8 mM) and potassium phosphate buffer (50 mM, pH 8.4). Reactions were initiated by the addition of substrate and terminated at designated times by the addition of three volumes of cold dichloromethane, mixed thoroughly and centrifuged to separate the aqueous and organic fractions. N- and S-oxide metabolic products in the resulting organic extracts were separated and quantified by HPLC. […] Thiobenzamide and thiobenzamide S-oxide were quantified with this same, HPLC system employing a mobile phase of methanol/acetonitrile/60% perchloric acid (20:80:0.016, v/v) which gave retention volumes of 2.7 and 7.0 ml, respectively. […] The major metabolites formed in the incubations were also subjected to mass spectral analysis after extraction of isolated HPLC fractions.
(§4) RPLC of the S-oxide diastereomers with a Chiracel OT chiral analytical column (25 cm×0.15 cm inner diameter, Daicel Chemical Co., New York, N.Y.) was accomplished with a Beckman system, Kratos UV detector (240 nm) and a Hewlett Packard Integrator. […] Quantification was accomplished by comparing integrated HPLC peak areas after taking into account the difference in the extinction coefficients at 240 nm. Likewise, the cis and trans S-oxide diasteromers of (+)- and (−)-2-methyl-1,-benzodithiole were separated with a Chiracel OT chiral analytical column.

Human Liver Microsomes = assay: in vitro
Method: as §1, §2, §3, §4

in vitro = conditions: human, pH 8.4
Method: as §1, §2, §3, §4

What does the source list for `NC(=S)c1ccccc1` [Thiobenzamide, thiobenzamide]?
substrate activity for human liver microsomes and expressed HLFMO 3, in words [1]: excellent substrates; pH of maximum S-oxygenase activity ([1]; in the presence of microsomes and expressed HLFMO 3): ~8.5; Vmax, Human Liver Microsomes (Human Liver Microsomes): 1.3 nmol/min/mg of protein; Km (in vitro): 14.9 µM

— patent US6762052B1, “DNA sequence encoding flavin-containing monooxygenase” (priority 1993, dated 2004)
